From patent US8314121B2, “Imidazolone derivatives, preparation thereof as drugs, pharmaceutical compositions, and use thereof as protein kinase inhibitors, in particular CDC7” (Sanofi, priority 2006, dated 2012) come the findings set out here.

For the compound `CN(Cc1ccco1)C1=N/C(=C\c2c[nH]c3ncc(Cl)cc23)C(=O)N1` [Example 94, (5Z)-5-[(5-chloro-1H-pyrrolo[2,3-b]pyridin-3-yl)methylidene]-2-[(furan-2-ylmethyl)(methyl)amino]-3,5-dihydro-4H-imidazol-4-one], the melting point (in general, the temperature, or range, at which the solid turns liquid) stood at 315 °C. As to `O=C1NC(NCC2CC2)=N/C1=C\c1c[nH]c2ncc(C(F)(F)F)cc12` [Example 48, (5Z)-2-[(cyclopropylmethyl)amino]-5-{[5-(trifluoromethyl)-1H-pyrrolo[2,3-b]pyridin-3-yl]methylidene}-3,5-dihydro-4H-imidazol-4-one], the melting point turned out to be 350 °C. Regarding `CC(C)SC1=N/C(=C\c2c[nH]c3ncc(Cl)cc23)C(=O)N1` [Example 63, (5Z)-5-[(5-chloro-1H-pyrrolo[2,3-b]pyridin-3-yl)methylidene]-2-((1-methyl)ethylsulphanyl)-3,5-dihydro-4H-imidazol-4-one], the melting point was in the range of 291 to 293 °C.

Consider `O=C1NC(N2CCCC2)=N/C1=C\c1c[nH]c2ncc(Cl)cc12` [Example 27, (5Z)-5-[(5-chloro-1H-pyrrolo[2,3-b]pyridin-3-yl)methylidene]-2-pyrrolidin-1-yl-3,5-dihydro-4H-imidazol-4-one], for which the melting point was in the range of 350 to 360 °C. The compound `O=C1/C(=C/c2c[nH]c3ncc(Cl)cc23)N=C(Oc2ccccc2)N1c1ccccc1` [Example 97, (5Z)-5-[(5-chloro-1H-pyrrolo[2,3-b]pyridin-3-yl)methylidene]-2-phenoxy-3-phenyl-3,5-dihydro-4H-imidazol-4-one] came in with a melting point of 287 °C. Compound `CN1CCN(C2=N/C(=C\c3c[nH]c4ncc(-c5ccccc5)cc34)C(=O)N2)CC1` [Example 41, (5Z)-2-(4-methylpiperazin-1-yl)-5-[(5-phenyl-1H-pyrrolo[2,3-b]pyridin-3-yl)methylidene]-3,5-dihydro-4H-imidazol-4-one] had a melting point of 304 °C. `CC(C)C1=N/C(=C\c2c[nH]c3ncccc23)C(=O)N1` [Example 79, (5Z)-2-(1-methylethyl)-5-(1H-pyrrolo[2,3-b]pyridin-3-ylmethylidene)-3,5-dihydro-4H-imidazol-4-one] returned a melting point of 309 to 310 °C. With `CN1C(=O)/C(=C/c2c[nH]c3ncccc23)N=C1C1CCOCC1` [Example 72, (5Z)-5-[(1H-pyrrolo[2,3-b]pyridin-3-yl)methylidene]-3-methyl-2-(tetrahydro-2H-pyran-4-yl)-3,5-dihydro-4H-imidazol-4-one] the figure was 283 to 285 °C; with `CN(Cc1ccccc1)C1=N/C(=C\c2c[nH]c3ncc(Cl)cc23)C(=O)N1` [Example 93, (5Z)-2-[benzyl(methyl)amino]-5-[(5-chloro-1H-pyrrolo[2,3-b]pyridin-3-yl)methylidene]-3,5-dihydro-4H-imidazol-4-one], 310 °C; with `O=C1NC(N2CCCCC2)=N/C1=C\c1c[nH]c2ncc(Cl)cc12` [Example 30, (5Z)-5-[(5-chloro-1H-pyrrolo[2,3-b]pyridin-3-yl)methylidene]-2-piperidin-1-yl-3,5-dihydro-4H-imidazol-4-one], 315 to 320 °C. With `CN1C(=O)/C(=C/c2c[nH]c3ncc(Cl)cc23)N=C1C1CCOCC1` [Example 73, (5Z)-5-[(5-chloro-1H-pyrrolo[2,3-b]pyridin-3-yl)methylidene]-3-methyl-2-(tetrahydro-2H-pyran-4-yl)-3,5-dihydro-4H-imidazol-4-one] the figure was 338 °C; with `CCCCC1=N/C(=C\c2c[nH]c3ncc(Cl)cc23)C(=O)N1` [Example 64, (5Z)-2-butyl-5-[(5-chloro-1H-pyrrolo[2,3-b]pyridin-3-yl)methylidene]-3,5-dihydro-4H-imidazol-4-one], 288 to 290 °C. For the compound `CN1C(=O)/C(=C/c2c[nH]c3ncccc23)N=C1C1CCCCC1` [Example 70, (5Z)-2-cyclohexyl-3-methyl-5-(1H-pyrrolo[2,3-b]pyridin-3-ylmethylidene)-3,5-dihydro-4H-imidazol-4-one], the melting point was in the range of 261 to 262 °C. The same measure for `CCCSC1=N/C(=C\c2c[nH]c3ncc(Cl)cc23)C(=O)N1` [Example 62, (5Z)-5-[(5-chloro-1H-pyrrolo[2,3-b]pyridin-3-yl)methylidene]-2-(propylsulphanyl)-3,5-dihydro-4H-imidazol-4-one]: 316 to 318 °C. With `O=C1NC(CC2CC2)=N/C1=C\c1c[nH]c2ncc(Cl)cc12` [Example 78, (5Z)-2-(cyclopropylmethyl)-5-(5-chloro-1H-pyrrolo[2,3-b]pyridin-3-ylmethylidene)-3,5-dihydro-4H-imidazol-4-one] the figure was 295 to 296 °C; with `CC(C)CC1=N/C(=C\c2c[nH]c3ncc(Cl)cc23)C(=O)N1C` [Example 76, (5Z)-5-[(5-chloro-1H-pyrrolo[2,3-b]pyridin-3-yl)methylidene]-3-methyl-2-(2-methylpropyl)-3,5-dihydro-4H-imidazol-4-one], 282 °C. The same measure for `O=C1NC(N2CCCCCC2)=N/C1=C\c1c[nH]c2ncc(C(F)(F)F)cc12` [Example 49, (5Z)-2-azepan-1-yl-5-{[5-(trifluoromethyl)-1H-pyrrolo[2,3-b]pyridin-3-yl]methylidene}-3,5-dihydro-4H-imidazol-4-one]: 340 °C; for `CSC1=N/C(=C\c2c[nH]c3ncc(Cl)cc23)C(=O)N1` [Example 60, (5Z)-5-[(5-chloro-1H-pyrrolo[2,3-b]pyridin-3-yl)methylidene]-2-(methylsulphanyl)-3,5-dihydro-4H-imidazol-4-one]: more than 410 °C. As for `CC(C)C1=N/C(=C\c2c[nH]c3ncc(Cl)cc23)C(=O)N1` [Example 80, (5Z)-2-(1-methylethyl)-5-(5-chloro-1H-pyrrolo[2,3-b]pyridin-3-ylmethylidene)-3,5-dihydro-4H-imidazol-4-one], the melting point lay within 277 to 280 °C. The same measure for `CC(C)CNC1=N/C(=C\c2c[nH]c3ncc(Cl)cc23)C(=O)N1` [Example 29, (5Z)-5-[(5-chloro-1H-pyrrolo[2,3-b]pyridin-3-yl)methylidene]-2-[(2-methylpropyl)amino]-3,5-dihydro-4H-imidazol-4-one]: 325 to 330 °C; for `N#Cc1cnc2[nH]cc(/C=C3\N=C(NCC4CC4)NC3=O)c2c1` [Example 37, 3-[(Z)-{2-[(cyclopropylmethyl)amino]-5-oxo-1,5-dihydro-4H-imidazol-4-ylidene}methyl]-1H-pyrrolo[2,3-b]pyridine-5-carbonitrile]: 335 °C.

In the case of `CC(C)C1=N/C(=C\c2c[nH]c3ncccc23)C(=O)N1C` [Example 81, (5Z)-3-methyl-2-(1-methylethyl)-5-(1H-pyrrolo[2,3-b]pyridin-3-ylmethylidene)-3,5-dihydro-4H-imidazol-4-one], the melting point was 222 to 224 °C. With `CC(C)CC1=N/C(=C\c2c[nH]c3ncccc23)C(=O)N1C` [Example 75, (5Z)-3-methyl-2-(2-methylpropyl)-5-(1H-pyrrolo[2,3-b]pyridin-3-ylmethylidene)-3,5-dihydro-4H-imidazol-4-one] the figure was 201 °C; with `Cc1cnc2[nH]cc(/C=C3\N=C(NCC(C)C)NC3=O)c2c1` [Example 44, (5Z)-2-[(2-methylpropyl)amino]-5-[(5-methyl-1H-pyrrolo[2,3-b]pyridin-3-yl)methylidene]-3,5-dihydro-4H-imidazol-4-one], 338 to 339 °C.

The compound `O=C1NC(N2CCOCC2)=N/C1=C\c1c[nH]c2ncc(-c3ccccc3)cc12` [Example 39, (5Z)-2-morpholin-4-yl-5-[(5-phenyl-1H-pyrrolo[2,3-b]pyridin-3-yl)methylidene]-3,5-dihydro-4H-imidazol-4-one] returned a melting point of 361 °C. `O=C1NC(N2CCCCCC2)=N/C1=C\c1c[nH]c2ncc(F)cc12` [Example 36, (5Z)-2-azepan-1-yl-5-[(5-fluoro-1H-pyrrolo[2,3-b]pyridin-3-yl)methylidene]-3,5-dihydro-4H-imidazol-4-one] displayed a melting point of 299 °C.

`CC(C)CC1=N/C(=C\c2c[nH]c3ncccc23)C(=O)N1` [Example 74, (5Z)-2-(2-methylpropyl)-5-(1H-pyrrolo[2,3-b]pyridin-3-ylmethylidene)-3,5-dihydro-4H-imidazol-4-one] had a melting point of 292 to 293 °C. With `O=C1NC(CC2CC2)=N/C1=C\c1c[nH]c2ncccc12` [Example 77, (5Z)-2-(cyclopropylmethyl)-5-(1H-pyrrolo[2,3-b]pyridin-3-ylmethylidene)-3,5-dihydro-4H-imidazol-4-one] the figure was 289 °C; with `O=C1NC(NCC2CC2)=N/C1=C\c1c[nH]c2ncc(N3CCOCC3)cc12` [Example 51, (5Z)-2-[(cyclopropylmethyl)amino]-5-[(5-morpholin-4-yl-1H-pyrrolo[2,3-b]pyridin-3-yl)methylidene]-3,5-dihydro-4H-imidazol-4-one], 331 °C.

Consider `O=C1NC(C2CCOCC2)=N/C1=C\c1c[nH]c2ncccc12` [Example 71, (5Z)-5-(1H-pyrrolo[2,3-b]pyridin-3-ylmethylidene)-2-(tetrahydro-2H-pyran-4-yl)-3,5-dihydro-4H-imidazol-4-one], for which the melting point lay in the range of 317 to 319 °C. The same measure for `Cc1cnc2[nH]cc(/C=C3\N=C(N4CCN(c5ccccc5)CC4)NC3=O)c2c1` [Example 46, (5Z)-5-[(5-methyl-1H-pyrrolo[2,3-b]pyridin-3-yl)methylidene]-2-(4-phenylpiperazin-1-yl)-3,5-dihydro-4H-imidazol-4-one]: 331 to 332 °C. The same measure for `CN(Cc1ccccn1)C1=N/C(=C\c2c[nH]c3ncc(Cl)cc23)C(=O)N1` [Example 96, (5Z)-5-[(5-chloro-1H-pyrrolo[2,3-b]pyridin-3-yl)methylidene]-2-[methyl(pyridin-2-ylmethyl)amino]-3,5-dihydro-4H-imidazol-4-one]: 350 °C; for `O=C1NC(N2CCCCCC2)=N/C1=C\c1c[nH]c2ncc(Cl)cc12` [Example 25, (5Z)-2-azepan-1-yl-5-[(5-chloro-1H-pyrrolo[2,3-b]pyridin-3-yl)methylidene]-3,5-dihydro-4H-imidazol-4-one]: 310 to 320 °C.
